# Measured values: patent US8680113B2, “BMI-1 protein expression modulators” (PTC Therapeutics, Inc., priority 2008, dated 2014)
# Test system: Bmi-1
# Experiment: Sandwich ELISA Assay (Bmi-1 ELISA in HT-1080 cells)
# Format: cell-based, human
# Protocol: Cell Seeding and Compound Treatment (Day 1):
# HT-1080 cells were seeded at 8000 cells/well (50 uL) in 96-well tissue culture plates. After the cells become adherent (3-4 hours), 2× diluted stocks of compounds in 50 uL DMEM containing 1% DMSO (final DMSO concentration was 0.5%) were added and the plates were incubated at 37° C. under 5% CO2 for 40-48 hours
# ELISA Plate First Antibody Preparation (Day 2):
# The First Antibody (Millipore Mouse, monoclonal to mouse Bmi-1, clone F6, catalog #05-637) diluted to 2 ug/mL in PBS was added (100 uL) to each well of a Nunc MaxiSorp 96-well ELISA plate. The plate was covered with a plate seal and allowed to stand overnight.
# Cell Lysate Preparation (Day 3):
# Fresh 1× Lysis buffer was prepared on the day of the assay as follows: 1 mM EDTA, 150 mM NaCl, 0.5% Triton-X 100, 10 mM NaF, 20 mM B-Glycerophosphate, 1 mM DTT (in PBS, pH 7.2-7.4) and 1×HALT protease inhibitor cocktail (Pierce #78410).
# 1× Lysis Buffer (40 uL) was added to each well and the plate was shaken for 5-10 minutes on an orbital shaker to allow cell lysis, then Diluent (1% BSA in PBS in 0.5% NP40) (100 uL) was added to each well.
# The Bmi-1 standard curve was prepared in Diluent at the following concentrations of protein: 8000, 4000, 2000, 1000, 500, 250, 125, 0 pg/mL The Bmi-1 Recombinant Protein Standard (Novus Biologicals PCGF4 Recombinant Protein (P01), catalog #H00000648-P01) used in the standard curve was stored at −80° C., and on first thaw, diluted to 10 ug/uL in Blocking Buffer (1% BSA in PBS; BSA: Fisher Scientific Catalog #1600-100) before being aliquoted and refrozen at −80° C. Aliquots can be kept at 4° C. and reused after first thaw, but only for 1-2 weeks. The Bmi-1 Recombinant Protein Standard contains a GST-fusion tag and thus will show up on western blots around 70 Kda.
# The prepared ELISA plate was washed 3× with Wash Buffer (0.05% Tween-20 in PBS). The final wash was removed from the plate and the plate was blotted dry on paper towels. Blocking Buffer (300 uL) (1% BSA in PBS) was added per well. The plate was covered with a plate seal and incubated at room temperature for 1 hour. The blocked plate was washed 3× with Wash Buffer, the final wash was removed and the plate was blotted dry on paper towels. The previously prepared samples and standards were added (at 100 uL/well) and the plate was covered with a plate seal and incubated at 4° C. overnight.
# The prepared ELISA plate was removed from 4° C., incubated at room temperature for 30 minutes, then washed and blotted dry as previously described for Day 3. The Second Antibody (Cell Signaling Rabbit anti-Bmi-1, Cat#2830) diluted to 1:600 in Blocking Buffer was added (100 uL) to each well, except as needed for background control wells. The plate was covered with a plate seal and incubated for 1.5 hrs at room temperature.
# The ELISA plate was washed and blotted dry as previously described. The Third Antibody (Cell Signaling HRP conjugated anti-rabbit IgG (CellSignaling, Cat#:7074) diluted to 1:300 in Blocking Buffer was added (100 uL) to each well, except as needed for background control wells. The plate was incubated for 1 hr at room temperature.
# The plate was washed and blotted dry as previously described, then prepared TMB substrate (TMB substrate kit, Pierce catalog #34021) (prepared by mixing kit reagents 1:1) (100 uL) was added per well. The plate was incubated for 20-30 minutes at room temperature in the dark, then Stop Solution (2 M sulfuric acid in water) (50 uL) was added per well. The plates were read at OD450 (experimental) and OD570 (reference).
row,IC50 [nM],Compound
1,< 500,"Cc1ccn2c(-c3csc(Nc4cccc(O)c4)n3)c(C)nc2c1 [Cpd 31, 3-{[4-(2,7-dimethylimidazo[1,2-a]pyridin-3-yl)-1,3-thiazol-2-yl]amino}phenol]"
2,< 500,"CC(=O)c1ccc(Nc2nc(-c3c(C)nc4cc(C)ccn34)cs2)cc1 [Cpd 33, 1-(4-{[4-(2,7-dimethylimidazo[1,2-a]pyridin-3-yl)-1,3-thiazol-2-yl]amino}phenyl)ethanone]"
3,< 500,"CCOc1ccc(Nc2nccc(-c3cnc4ccccn34)n2)cc1 [Cpd 252, N-(4-ethoxyphenyl)-4-(imidazo[1,2-a]pyridin-3-yl)pyrimidin-2-amine]"
4,< 500,"COc1ccc(Nc2nc(-c3cnc4ccc(Cl)cn34)cs2)cc1Cl [Cpd 109, 4-(6-chloroimidazo[1,2-a]pyridin-3-yl)-N-(3-chloro-4-methoxyphenyl)-1,3-thiazol-2-amine]"
5,< 500,"Cc1nc2ccc(F)cn2c1-c1csc(Nc2ccc(Cl)cc2)n1 [Cpd 161, N-(4-chlorophenyl)-4-(6-fluoro-2-methylimidazo[1,2-a]pyridin-3-yl)-1,3-thiazol-2-amine]"
6,< 500,"CCc1nc2ncccn2c1-c1csc(Nc2ccc3c(c2)OCO3)n1 [Cpd 151, N-(1,3-benzodioxol-5-yl)-4-(2-ethylimidazo[1,2-a]pyrimidin-3-yl)-1,3-thiazol-2-amine]"
7,< 500,"Cc1nc2ccc(F)cn2c1-c1csc(Nc2ccc(I)cc2)n1 [Cpd 156, 4-(6-fluoro-2-methylimidazo[1,2-a]pyridine-3-yl)-N-(4-iodophenyl)-1,3-thiazol-2-amine]"
8,1000 to 3000,"COCCOc1cc(Br)c(Nc2nc(-c3c(C)nc4ncccn34)cs2)c(Br)c1 [Cpd 23, N-(2,6-dibromo-4-(2-methoxyethoxy)phenyl)-4-(2-methylimidazo[1,2-a]pyrimidin-3-yl)thiazol-2-amine]"
9,< 500,"CCN(CC)c1ccc(N(C)c2nccc(-c3c(C)nc4ccccn34)n2)cc1 [Cpd 138, N,N-diethyl-N′-methyl-N′-[4-(2-methylimidazo[1,2-a]pyridin-3-yl)pyrimidin-2-yl]benzene-1,4-diamine]"
10,< 500,"CCOc1ccc(Nc2nc(-c3c(C)nc4ccc(F)cn34)cs2)cc1 [Cpd 163, N-(4-ethoxyphenyl)-4-(6-fluoro-2-methylimidazo[1,2-a]pyridin-3-yl)-1,3-thiazol-2-amine]"
11,< 500,"COc1ccc(Nc2nc(-c3c(C)nc4ncccn34)cs2)cc1OC [Cpd 84, N-(3,4-dimethoxyphenyl)-4-(2-methylimidazo[1,2-a]pyrimidin-3-yl)-1,3-thiazol-2-amine]"
12,< 500,"Cc1cc(Br)ccc1Nc1nc(-c2c(C)nc3ccc(Cl)cn23)cs1 [Cpd 216, N-(4-bromo-2-methylphenyl)-4-(6-chloro-2-methylimidazo[1,2-a]pyridin-3-yl)-1,3-thiazol-2-amine]"
13,< 500,"CCCc1nc2ccccn2c1-c1csc(Nc2ccc(OC)c(Cl)c2)n1 [Cpd 172, N-(3-chloro-4-methoxyphenyl)-4-(2-propylimidazo[1,2-a]pyridin-3-yl)-1,3-thiazol-2-amine]"
14,< 500,"CCCc1nc2ccccn2c1-c1csc(Nc2ccc(C(C)=O)cc2)n1 [Cpd 177, 1-(4-{[4-(2-propylimidazo[1,2-a]pyridin-3-yl)-1,3-thiazol-2-yl]amino}phenyl)ethanone]"
15,< 500,"CCc1ccc(Nc2nc(-c3c(C)nc4ncccn34)cs2)cc1 [Cpd 86, N-(4-ethylphenyl)-4-(2-methylimidazo[1,2-a]pyrimidin-3-yl)-1,3-thiazol-2-amine]"
16,< 500,"CCc1nc2ncccn2c1-c1csc(Nc2ccc(C(C)=O)cc2)n1 [Cpd 150, 1-(4-{[4-(2-ethylimidazo[1,2-a]pyrimidin-3-yl)-1,3-thiazol-2-yl]amino}phenyl)ethanone]"

row,IC50 [nM],Compound
1,500 to 1000,"Clc1cc(Cl)c(Nc2nc(-c3cnc4ccc(Cl)cn34)cs2)c(Cl)c1 [Cpd 136, 4-(6-chloroimidazo[1,2-a]pyridin-3-yl)-N-(2,4,6-trichlorophenyl)-1,3-thiazol-2-amine]"
2,< 500,"CCCc1nc2ncccn2c1-c1csc(Nc2ccc3c(c2)OCO3)n1 [Cpd 182, N-(1,3-benzodioxol-5-yl)-4-(2-propylimidazo[1,2-a]pyrimidin-3-yl)-1,3-thiazol-2-amine]"
3,500 to 1000,"Clc1ccccc1Nc1nccc(-c2cnc3ccccn23)n1 [Cpd 247, N-(2-chlorophenyl)-4-(imidazo[1,2-a]pyridin-3-yl)pyrimidin-2-amine]"
4,< 500,"Cc1nc2ccccn2c1-c1ccnc(Nc2ccc(I)cc2)n1 [Cpd 119, N-(4-iodophenyl)-4-(2-methylimidazo[1,2-a]pyridin-3-yl)pyrimidin-2-amine]"
5,< 500,"COc1ccc(Nc2nc(-c3c(C)nc4ccc(Cl)cn34)cs2)cc1F [Cpd 96, 4-(6-chloro-2-methylimidazo[1,2-a]pyridin-3-yl)-N-(3-fluoro-4-methoxyphenyl)-1,3-thiazol-2-amine]"
6,< 500,"CCCc1nc2ccccn2c1-c1csc(Nc2ccc(Cl)cc2)n1 [Cpd 178, N-(4-chlorophenyl)-4-(2-propylimidazo[1,2-a]pyridin-3-yl)-1,3-thiazol-2-amine]"
7,< 500,"COc1ccc(Nc2nc(-c3cnc4ccc(Cl)cn34)cs2)cc1F [Cpd 110, 4-(6-chloroimidazo[1,2-a]pyridin-3-yl)-N-(3-fluoro-4-methoxyphenyl)-1,3-thiazol-2-amine]"
8,500 to 1000,"COc1cc(Cl)c(Nc2nc(-c3c(C)nc4ncccn34)cs2)c(Cl)c1 [Cpd 19, N-(2,6-dichloro-4-methoxyphenyl)-4-(2-methylimidazo[1,2-a]pyrimidin-3-yl)thiazol-2-amine]"
9,< 500,"CCOc1ccc(Nc2nc(-c3c(C)nc4ncccn34)cs2)cc1 [Cpd 13, N-(4-ethoxyphenyl)-4-(2-methylimidazo[1,2-a]pyrimidin-3-yl)thiazol-2-amine]"
10,< 500,"COc1cccc(Nc2nc(-c3c(C)nc4c(C)cccn34)cs2)c1 [Cpd 225, 4-(2,8-dimethylimidazo[1,2-a]pyridin-3-yl)-N-(3-methoxyphenyl)-1,3-thiazol-2-amine]"
11,< 500,"Cc1nc2ccccn2c1-c1ccnc(N(C)c2ccc3c(c2)OCO3)n1 [Cpd 139, N-(1,3-benzodioxol-5-yl)-N-methyl-4-(2-methylimidazo[1,2-a]pyridin-3-yl)pyrimidin-2-amine]"
12,< 500,"COc1ccc(Nc2nc(-c3c(C)nc4cc(C)ccn34)cs2)cc1F [Cpd 66, 4-(2,7-dimethylimidazo[1,2-a]pyridin-3-yl)-N-(3-fluoro-4-methoxyphenyl)-1,3-thiazol-2-amine]"
13,< 500,"Cc1cccc(Nc2nc(-c3c(C)nc4ccc(Cl)cn34)cs2)c1 [Cpd 209, 4-(6-chloro-2-methylimidazo[1,2-a]pyridin-3-yl)-N-(3-methylphenyl)-1,3-thiazol-2-amine]"
14,< 500,"COc1cc(Br)c(Nc2nccc(-c3cnc4ncccn34)n2)c(Br)c1 [Cpd 257, N-(2,6-dibromo-4-methoxyphenyl)-4-(imidazo[1,2-a]pyrimidin-3-yl)pyrimidin-2-amine]"
15,< 500,"Cc1nc2ccc(Cl)cn2c1-c1csc(Nc2ccc(Cl)cc2Cl)n1 [Cpd 218, 4-(6-chloro-2-methylimidazo[1,2-a]pyridin-3-yl)-N-(2,4-dichlorophenyl)-1,3-thiazol-2-amine]"
16,< 500,"COc1ccc(Nc2nc(-c3c(C)nc4ccc(Cl)cn34)cs2)c(Br)c1 [Cpd 208, N-(2-bromo-4-methoxyphenyl)-4-(6-chloro-2-methylimidazo[1,2-a]pyridin-3-yl)-1,3-thiazol-2-amine]"

row,Compound,IC50 [nM]
1,"1-(4-{[4-(imidazo[1,2-a]pyrimidin-3-yl)pyrimidin-2-yl]amino}phenyl)ethanone [Cpd 258]",< 500
